Source: patent US11472778B2, “Hepatitis C virus NS3/4A protease inhibitors” (priority 2017, dated 2022)
Where two headings read alike, the source gives them in different places.

What was measured:
Assay type in all cases: biochemical, Hepatitis C virus
[1] = molecular target: GT1a R155K NS3/4A protease (UniProt P27958, R1181K, species not given)
Experimental: (§1) For each assay, 2 nM of NS3/4A protease (GT1a, R155K and D168A) was pre-incubated at room temperature for 1 h with increasing concentration of inhibitors in assay buffer (50 mM Tris, 5% glycerol, 10 mM DTT, 0.6 mM LDAO, and 4% dimethyl sulfoxide, pH 7.5). Inhibition assays were performed in non-binding surface 96-well black half-area plates (Corning) in a reaction volume of 60 μL. […] Three independent data sets were collected for each inhibitor with each protease construct. […] Gibbs free energy of binding was calculated using the following equation: ΔG=RTlnKi

[2] = molecular target: GT1a R155K NS3/4A protease; conditions: fold change in Ki, R155K relative to WT
Experimental: as §1

[3] = molecular target: T1, GT1a D168A NS3/4A protease (UniProt P27958, D1194A, species not given)
T1 construct: rows headed: Ki (nM) D168A; Ki D168A; other: D168A variant
Procedure, shortened: (§2)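 NS3/4A protease (2 nM; wild-type GT1a or D168A) pre-incubated 1 h at room temperature with increasing inhibitor in 50 mM Tris pH 7.5, 5% glycerol, 10 mM DTT, 0.6 mM LDAO, 4% DMSO. Ki from three independent data sets per construct; ΔG=RTlnKi.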

[4] = molecular target: GT1a D168A NS3/4A protease; conditions: fold change in Ki, D168A relative to WT
Procedure, shortened: as §2

[5] = molecular target: T2, wild-type GT1a NS3/4A protease (UniProt P27958)
T2 construct: Ki WT; other: wild-type HCV NS3/4A protease
Procedure, shortened: as §2

[6] = read-out: Ki (nM) R155K, Table 8, linear inhibitors
[7] = read-out: Ki R155K, R155K variant
[8] = read-out: Ki (nM) D168A, Table 8, linear inhibitors
[9] = read-out: Ki D168A, D168A variant
[10] = read-out: Ki (nM) WT, Table 8, linear inhibitors
[11] = read-out: Ki WT, wild-type HCV NS3/4A protease

C=C[C@@H]1C[C@]1(NC(=O)[C@@H]1C[C@@H](Oc2nc3cc(OC)ccc3nc2C)CN1C(=O)[C@@H](NC(=O)OC(C)(C)C)C(C)(C)C)C(=O)NS(=O)(=O)C1CC1 [Compound 9b, tert-Butyl ((S)-1-((2S,4R)-2-(((1R,2S)-1-((cyclopropylsulfonyl)carbamoyl)-2-vinylcyclopropyl)carbamoyl)-4-((7-methoxy-3-methylquinoxalin-2-yl)oxy)pyrrolidin-1-yl)-3,3-dimethyl-1-oxobutan-2-yl)carbamate] was tested, and the Ki [1, 6] was 8.5 ± 2.1 nM, the Ki [1, 7] was 8.5 ± 2.1 nM and the “Ki R155K (fold change)” value [2] was 0.5. For the same compound, the Ki [3, 8] was 290 ± 24 nM, the Ki [3, 9] was 290 ± 24 nM and the “Ki D168A (fold change)” value [4] was 16. It also gave a Ki [5, 10] of 18 ± 1.6 nM and a Ki [5, 11] of 18 ± 1.6 nM.

In the case of C=C[C@@H]1C[C@]1(NC(=O)[C@@H]1C[C@@H](Oc2nc3cc(OC)ccc3nc2C(C)C)CN1C(=O)[C@@H](NC(=O)OC(C)(C)C)C(C)(C)C)C(=O)NS(=O)(=O)C1CC1 [Compound 9c, tert-Butyl ((S)-1-((2S,4R)-2-(((1R,2S)-1-((cyclopropylsulfonyl)carbamoyl)-2-vinylcyclopropyl)carbamoyl)-4-((3-isopropyl-7-methoxyquinoxalin-2-yl)oxy)pyrrolidin-1-yl)-3,3-dimethyl-1-oxobutan-2-yl)carbamate], the Ki [1, 6] is reported as 49 ± 11 nM, the Ki [1, 7] is reported as 49 ± 11 nM and the “Ki R155K (fold change)” value [2] is reported as 1.5. For the same compound, the Ki [3, 8] was 1090 ± 137 nM, the Ki [3, 9] was 1090 ± 137 nM and the “Ki D168A (fold change)” value [4] was 34. The Ki [5, 10] was 32 ± 5.1 nM and the Ki [5, 11] was 32 ± 5.1 nM.

C=C[C@@H]1C[C@]1(NC(=O)[C@@H]1C[C@@H](Oc2nc3cc(OC)ccc3nc2C(F)(F)F)CN1C(=O)[C@@H](NC(=O)OC(C)(C)C)C(C)(C)C)C(=O)NS(=O)(=O)C1CC1 [Compound 9e, tert-Butyl ((S)-1-((2S,4R)-2-(((1R,2S)-1-((cyclopropylsulfonyl)carbamoyl)-2-vinylcyclopropyl)carbamoyl)-4-((7-methoxy-3-(trifluoromethyl)quinoxalin-2-yl)oxy)pyrrolidin-1-yl)-3,3-dimethyl-1-oxobutan-2-yl)carbamate] was tested, and the Ki [1, 6] was 24 ± 3.3 nM, the Ki [1, 7] was 24 ± 3.3 nM and the “Ki R155K (fold change)” value [2] was 0.3. For the same compound, the Ki [3, 8] was 723 ± 80 nM, the Ki [3, 9] was 723 ± 80 nM and the “Ki D168A (fold change)” value [4] was 8. For the same compound, the Ki [5, 10] was 87 ± 18 nM and the Ki [5, 11] was 87 ± 18 nM.

With C=C[C@@H]1C[C@]1(NC(=O)[C@@H]1C[C@@H](Oc2nc3cc(OC)ccc3nc2CC)CN1C(=O)[C@@H](NC(=O)OC(C)(C)C)C(C)(C)C)C(=O)NS(=O)(=O)C1(C)CC1 [Compound 10a, tert-Butyl ((S)-1-((2S,4R)-4-((3-ethyl-7-methoxyquinoxalin-2-yl)oxy)-2-(((1R,2S)-1-(((1-methylcyclopropyl)sulfonyl)carbamoyl)-2-vinylcyclopropyl)carbamoyl)pyrrolidin-1-yl)-3,3-dimethyl-1-oxobutan-2-yl)carbamate] the Ki [1, 6] was 14 ± 1.1 nM, the Ki [1, 7] was 14 ± 1.1 nM and the “Ki R155K (fold change)” value [2] was 0.9. The Ki [3, 8] was 385 ± 31 nM, the Ki [3, 9] was 385 ± 31 nM and the “Ki D168A (fold change)” value [4] was 24. For the same compound, the Ki [5, 10] was 16 ± 1.3 nM and the Ki [5, 11] was 16 ± 1.3 nM.

C=C[C@@H]1C[C@]1(NC(=O)[C@@H]1C[C@@H](Oc2nc3cc(OC)ccc3nc2C)CN1C(=O)[C@@H](NC(=O)OC(C)(C)C)C(C)(C)C)C(=O)NS(=O)(=O)C1(C)CC1 [Compound 10b, tert-Butyl ((S)-1-((2S,4R)-4-((7-methoxy-3-methylquinoxalin-2-yl)oxy)-2-(((1R,2S)-1-(((1-methylcyclopropyl)sulfonyl)carbamoyl)-2-vinylcyclopropyl)carbamoyl)pyrrolidin-1-yl)-3,3-dimethyl-1-oxobutan-2-yl)carbamate] was tested, and the Ki [1, 6] was 14 ± 1.7 nM, the Ki [1, 7] was 14 ± 1.7 nM and the “Ki R155K (fold change)” value [2] was 1.0. For the same compound, the Ki [3, 8] was 265 ± 26 nM, the Ki [3, 9] was 265 ± 26 nM and the “Ki D168A (fold change)” value [4] was 19. For the same compound, the Ki [5, 10] was 14 ± 2.1 nM and the Ki [5, 11] was 14 ± 2.1 nM.

With C=C[C@@H]1C[C@]1(NC(=O)[C@@H]1C[C@@H](Oc2nc3cc(OC)ccc3nc2C(C)C)CN1C(=O)[C@@H](NC(=O)OC(C)(C)C)C(C)(C)C)C(=O)NS(=O)(=O)C1(C)CC1 [Compound 10c, tert-Butyl ((S)-1-((2S,4R)-4-((3-isopropyl-7-methoxyquinoxalin-2-yl)oxy)-2-(((1R,2S)-1-(((1-methylcyclopropyl)sulfonyl)carbamoyl)-2-vinylcyclopropyl)carbamoyl)pyrrolidin-1-yl)-3,3-dimethyl-1-oxobutan-2-yl)carbamate] the Ki [1, 6] was 27 ± 5.6 nM, the Ki [1, 7] was 27 ± 5.6 nM and the “Ki R155K (fold change)” value [2] was 0.9. The Ki [3, 8] was 1180 ± 170 nM, the Ki [3, 9] was 1180 ± 170 nM and the “Ki D168A (fold change)” value [4] was 41. It also gave a Ki [5, 10] of 29 ± 9.4 nM and a Ki [5, 11] of 29 ± 9.4 nM.

With C=C[C@@H]1C[C@]1(NC(=O)[C@@H]1C[C@@H](Oc2nc3cc(OC)ccc3nc2C(F)(F)F)CN1C(=O)[C@@H](NC(=O)OC(C)(C)C)C(C)(C)C)C(=O)NS(=O)(=O)C1(C)CC1 [Compound 10e, tert-Butyl ((S)-1-((2S,4R)-4-((7-methoxy-3-(trifluoromethyl)quinoxalin-2-yl)oxy)-2-(((1R,2S)-1-(((1-methylcyclopropyl)sulfonyl)carbamoyl)-2-vinylcyclopropyl)carbamoyl)pyrrolidin-1-yl)-3,3-dimethyl-1-oxobutan-2-yl)carbamate] the Ki [1, 6] was 12 ± 1.7 nM, the Ki [1, 7] was 12 ± 1.7 nM and the “Ki R155K (fold change)” value [2] was 0.3. The Ki [3, 8] was 513 ± 50 nM, the Ki [3, 9] was 513 ± 50 nM and the “Ki D168A (fold change)” value [4] was 11. It also gave a Ki [5, 10] of 46 ± 9.6 nM and a Ki [5, 11] of 46 ± 9.6 nM.

With C=C[C@@H]1C[C@]1(NC(=O)[C@@H]1C[C@@H](Oc2nc3cc(OC)ccc3nc2CC)CN1C(=O)[C@@H](NC(=O)OC1CCCC1)C(C)(C)C)C(=O)NS(=O)(=O)C1CC1 [Compound 11a, Cyclopentyl ((S)-1-((2S,4R)-2-(((1R,2S)-1-((cyclopropylsulfonyl)carbamoyl)-2-vinylcyclopropyl)carbamoyl)-4-((3-ethyl-7-methoxyquinoxalin-2-yl)oxy)pyrrolidin-1-yl)-3,3-dimethyl-1-oxobutan-2-yl)carbamate] the Ki [1, 6] was 15 ± 2.2 nM, the Ki [1, 7] was 15 ± 2.2 nM and the “Ki R155K (fold change)” value [2] was 1.5. For the same compound, the Ki [3, 8] was 350 ± 30 nM, the Ki [3, 9] was 350 ± 30 nM and the “Ki D168A (fold change)” value [4] was 36. For the same compound, the Ki [5, 10] was 9.8 ± 2 nM and the Ki [5, 11] was 9.8 ± 2 nM.

In the case of C=C[C@@H]1C[C@]1(NC(=O)[C@@H]1C[C@@H](Oc2nc3cc(OC)ccc3nc2C(C)C)CN1C(=O)[C@@H](NC(=O)OC1CCCC1)C(C)(C)C)C(=O)NS(=O)(=O)C1CC1 [Compound 11c, Cyclopentyl ((S)-1-((2S,4R)-2-(((1R,2S)-1-((cyclopropylsulfonyl)carbamoyl)-2-vinylcyclopropyl)carbamoyl)-4-((3-isopropyl-7-methoxyquinoxalin-2-yl)oxy)pyrrolidin-1-yl)-3,3-dimethyl-1-oxobutan-2-yl)carbamate], the Ki [1, 6] is reported as 55 ± 11 nM, the Ki [1, 7] is reported as 55 ± 11 nM and the “Ki R155K (fold change)” value [2] is reported as 3. The Ki [3, 8] was 985 ± 106 nM, the Ki [3, 9] was 985 ± 106 nM and the “Ki D168A (fold change)” value [4] was 58. It also gave a Ki [5, 10] of 17 ± 3.2 nM and a Ki [5, 11] of 17 ± 3.2 nM.

For C=C[C@@H]1C[C@]1(NC(=O)[C@@H]1C[C@@H](Oc2nc3cc(OC)ccc3nc2C(F)(F)F)CN1C(=O)[C@@H](NC(=O)OC1CCCC1)C(C)(C)C)C(=O)NS(=O)(=O)C1CC1 [Compound 11e, Cyclopentyl ((S)-1-((2S,4R)-2-(((1R,2S)-1-((cyclopropylsulfonyl)carbamoyl)-2-vinylcyclopropyl)carbamoyl)-4-((7-methoxy-3-(trifluoromethyl)quinoxalin-2-yl)oxy)pyrrolidin-1-yl)-3,3-dimethyl-1-oxobutan-2-yl)carbamate], the Ki [1, 6] was 26 ± 7.7 nM, the Ki [1, 7] was 26 ± 7.7 nM and the “Ki R155K (fold change)” value [2] was 0.8. For the same compound, the Ki [3, 8] was 703 ± 63 nM, the Ki [3, 9] was 703 ± 63 nM and the “Ki D168A (fold change)” value [4] was 21. It also gave a Ki [5, 10] of 34 ± 8.3 nM and a Ki [5, 11] of 34 ± 8.3 nM.

For C=C[C@@H]1C[C@]1(NC(=O)[C@@H]1C[C@@H](Oc2nc3cc(OC)ccc3nc2CC)CN1C(=O)[C@@H](NC(=O)OC1CCCC1)C(C)(C)C)C(=O)NS(=O)(=O)C1(C)CC1 [Compound 12a, Cyclopentyl ((S)-1-((2S,4R)-4-((3-ethyl-7-methoxyquinoxalin-2-yl)oxy)-2-(((1R,2S)-1-(((1-methylcyclopropyl)sulfonyl)carbamoyl)-2-vinylcyclopropyl)carbamoyl)pyrrolidin-1-yl)-3,3-dimethyl-1-oxobutan-2-yl)carbamate], the Ki [1, 6] was 13 ± 2.7 nM, the Ki [1, 7] was 13 ± 2.7 nM and the “Ki R155K (fold change)” value [2] was 1.9. The Ki [3, 8] was 145 nM, the Ki [3, 9] was 145 ± 14 nM and the “Ki D168A (fold change)” value [4] was 21. For the same compound, the Ki [5, 10] was 6.9 nM and the Ki [5, 11] was 6.9 ± 0.5 nM.
